Data reported in ChEMBL document CHEMBL1143505, “Synthesis and pharmacological investigation of novel 1-substituted-4-phenyl-1,2,4-triazolo[4,3-a]quinazolin-5(4H)-ones as a new class of H1-antihistaminic agents” (2005).

Assays:
[1] = species: Cavia porcellus; test: Percentage reduction central nervous system depression in guinea pig by compound
[2] = species: Cavia porcellus; test: Percentage protection of guinea pigs from histamine induced bronchospasm by compound; design: concentration or dose not given beside the values

| SMILES | Depression [1] | Protection [2] |
| --- | --- | --- |
| O=c1c2ccccc2n2cnnc2n1-c1ccccc1 | 4.2% | 69.9% |
| Cc1nnc2n(-c3ccccc3)c(=O)c3ccccc3n12 | 4.8% | 70.7% |
| O=c1c2ccccc2n2c(CCl)nnc2n1-c1ccccc1 | 3.7% | 68.7% |
| CCCc1nnc2n(-c3ccccc3)c(=O)c3ccccc3n12 | 7.3% | 69.2% |
| CCc1nnc2n(-c3ccccc3)c(=O)c3ccccc3n12 | 5.3% | 70% |
| O=C(O)COCCN1CCN(C(c2ccccc2)c2ccc(Cl)cc2)CC1 (centres undefined) [CETIRIZINE] | 8.5% | 78.9% |
| CN(C)CCC(c1ccc(Cl)cc1)c1ccccn1.O=C(O)/C=C\C(=O)O (centres undefined) [CHLORPHENIRAMINE MALEATE] | 26% | 71% |
